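Interpolation was linear, between the two tested concentrations surrounding the appropriate level; five concentrations were tested over 48 hours in 96-well plates. GI50 = concentration required for 50% inhibition of growth. TGI: concentration producing complete growth inhibition.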
Legend:
Experiment in all cases: DTP human tumour cell line panel, 48 h; in the data active = GI50 below about 0.43 µM; inactive = the rest
[1] = tested on: 786-0 renal
[2] = tested on: A498 renal
[3] = tested on: A549 NSCLC
[4] = tested on: ACHN renal
[5] = tested on: BT-549 breast
[6] = tested on: CAKI-1 renal
[7] = tested on: CCRF-CEM leukemia
[8] = tested on: COLO 205 colon
[9] = tested on: DU-145 prostate
[10] = tested on: EKVX NSCLC
[11] = tested on: HCC-2998 colon
[12] = tested on: HCT-116 colon
[13] = tested on: HCT-15 colon
[14] = tested on: HL-60(TB) leukemia
[15] = tested on: HOP-62 NSCLC
[16] = tested on: HOP-92 NSCLC
[17] = tested on: HS 578T breast
[18] = tested on: HT29 colon
[19] = tested on: IGROV1 ovarian
[20] = tested on: K-562 leukemia
[21] = tested on: KM12 colon
[22] = tested on: LOX IMVI melanoma
[23] = tested on: M14 melanoma
[24] = tested on: MALME-3M melanoma
[25] = tested on: MCF7 breast
[26] = tested on: MDA-MB-231 breast
[27] = tested on: MDA-MB-435
[28] = tested on: MOLT-4 leukemia
[29] = tested on: NCI-H226 lung
[30] = tested on: NCI-H23 lung
[31] = tested on: NCI-H460 lung
[32] = tested on: NCI-H522 lung
[33] = tested on: NCI/ADR-RES ovarian
[34] = tested on: OVCAR-3 ovarian
[35] = tested on: OVCAR-4 ovarian
[36] = tested on: OVCAR-5 ovarian
[37] = tested on: OVCAR-8 ovarian
[38] = tested on: PC-3 prostate
[39] = tested on: RPMI-8226 leukemia
[40] = tested on: RXF 393 renal
[41] = tested on: SF-268 CNS
[42] = tested on: SF-295 CNS
[43] = tested on: SF-539 CNS
[44] = tested on: SK-MEL-2 melanoma
[45] = tested on: SK-MEL-28 melanoma
[46] = tested on: SK-MEL-5 melanoma
[47] = tested on: SK-OV-3 ovarian
[48] = tested on: SN12C renal
[49] = tested on: SNB-19 CNS
[50] = tested on: SR leukemia
[51] = tested on: SW-620 colon
[52] = tested on: T-47D breast
[53] = tested on: TK-10 renal
[54] = tested on: U251 CNS
[55] = tested on: UACC-257 melanoma
[56] = tested on: UACC-62 melanoma
[57] = tested on: UO-31 renal

COc1ccc2c(c1)C(=Nc1ccc(F)c(F)c1F)c1c-2c(Nc2ccc(F)c(F)c2F)nc2ccccc12
> 55.1 µM: TGI [56]
> 82.8 µM: TGI [33]
53.7 µM: TGI [2]
> 84.1 µM: TGI [29]
> 68.7 µM: TGI [1]
61.7 µM: TGI [47]
> 55.6 µM: TGI [35]
0.0392 µM: TGI [14]
56.5 µM: TGI [40]
> 64.3 µM: TGI [54]
43.7 µM: TGI [15]
> 78.6 µM: TGI [37]
> 100 µM: TGI [3] | TGI [4] | TGI [6] | TGI [7] | TGI [8] | TGI [9] | TGI [10] | TGI [11] | TGI [12] | TGI [13] | TGI [16] | TGI [17] | TGI [18] | TGI [20] | TGI [21] | TGI [22] | TGI [23] | TGI [24] | TGI [25] | TGI [27] | TGI [28] | TGI [31] | TGI [32] | TGI [36] | TGI [38] | TGI [39] | TGI [41] | TGI [42] | TGI [44] | TGI [45] | TGI [46] | TGI [48] | TGI [49] | TGI [51] | TGI [52] | TGI [55] | TGI [57]
> 89.1 µM: TGI [34]
> 65.4 µM: TGI [5]
> 62.2 µM: TGI [30]
> 83.6 µM: TGI [43]
> 72.9 µM: TGI [19]
> 90.9 µM: TGI [53]
inactive: GI50 [1] 27.3 µM | GI50 [2] 17.2 µM | GI50 [3] > 59.3 µM | GI50 [4] 41.2 µM | GI50 [5] 36 µM | GI50 [6] > 57.2 µM | GI50 [7] 46.3 µM | GI50 [8] 38.8 µM | GI50 [9] 49.8 µM | GI50 [10] > 79.5 µM | GI50 [11] > 100 µM | GI50 [12] 31.8 µM | GI50 [13] 49 µM | GI50 [15] 14.6 µM | GI50 [16] 48 µM | GI50 [17] 22 µM | GI50 [18] 36.6 µM | GI50 [19] 15.9 µM | GI50 [20] 29.5 µM | GI50 [21] > 71.1 µM | GI50 [22] > 60.5 µM | GI50 [23] 27.7 µM | GI50 [24] 50.6 µM | GI50 [25] 44 µM | GI50 [26] 26.6 µM | GI50 [27] > 70.7 µM | GI50 [28] 24.2 µM | GI50 [29] > 44.4 µM | GI50 [30] > 36.1 µM | GI50 [31] > 75.5 µM | GI50 [32] 59.8 µM | GI50 [33] 37.4 µM | GI50 [34] 46.6 µM | GI50 [35] 27.8 µM | GI50 [36] > 46.6 µM | GI50 [37] 35.9 µM | GI50 [38] > 56.7 µM | GI50 [39] 42.7 µM | GI50 [40] 17.2 µM | GI50 [41] 36.8 µM | GI50 [42] 41.3 µM | GI50 [43] 37.7 µM | GI50 [44] 23.8 µM | GI50 [45] 28 µM | GI50 [46] > 74.4 µM | GI50 [47] 16.3 µM | GI50 [48] > 58.6 µM | GI50 [49] 33.1 µM | GI50 [51] > 59.3 µM | GI50 [52] > 100 µM | GI50 [53] 25.4 µM | GI50 [54] 28.2 µM | GI50 [55] > 100 µM | GI50 [56] 23.8 µM | GI50 [57] > 89.3 µM
1.41 µM: TGI [50]
> 60.1 µM: TGI [26]
